# Values of other authors as cited in patent US20070275949A1, “Benzazepine Derivatives and Methods of Prophylaxis or Treatment of 5Ht2C Receptor Associated Diseases” (Arena Pharmaceuticals, Inc., priority 2003, published 2007).
# Test system: guinea pigs
# Details: in vivo, repeat administration
smiles,measurement,value
C[C@H](N)Cc1cccc(C(F)(F)F)c1 [dexnorfenfluramine],amyloid precursor protein (APPs) secretion,stimulated
same,levels of Aβ production,reducing
